Key:
Assay in all cases: NanoBRET CELLinib128
ABL1 = target: T1, ABL1 (Homo sapiens, UniProt P00519); format: binding; conditions: 100% no effect, 0% complete tracer displacement, read-out: Tracer bound
T1 construct: Full-length kinase ORF (Promega, Madison, WI, USA) cloned in frame with a NanoLuc-vector was transfected into HEK293T cells; host or cells: HEK293T

GSK3A = GSK3A (Homo sapiens, UniProt P49840); conditions: read-out: Tracer bound
TESK1 = target: T2, TESK1 (Homo sapiens, UniProt Q15569); format: binding; conditions: 100% no effect, 0% complete tracer displacement, read-out: Tracer bound
T2 construct: Full-length kinase ORF (Promega, Madison, WI, USA) cloned in frame with a NanoLuc-vector; host or cells: HEK293T

MARK2 = target: T3, MARK2 (Homo sapiens, UniProt Q7KZI7); format: binding; conditions: 100% no effect, 0% complete tracer displacement, read-out: Tracer bound
T3 construct: Full-length kinase ORF (Promega, Madison, WI, USA) cloned in frame with a NanoLuc-vector was transfected into HEK293T cells; host or cells: HEK293T

PTK2 = target: T4, PTK2 (Homo sapiens, UniProt Q05397); format: binding; conditions: 100% no effect, 0% complete tracer displacement, read-out: Tracer bound
T4 construct: Full-length kinase ORF (Promega, Madison, WI, USA) cloned in frame with a NanoLuc-vector was transfected into HEK293T cells; host or cells: HEK293T
Description: (§1) To get an impression about the binding strength of the PROTAC MA191 and the reference inhibitor MA68 to other kinases besides FLT3-ITD the binding on a kinase panel of further 128 representative protein kinases at 1 μM concentration was tested using the NanoBRET^TM cellular target engagement assay (CELLinib128 assay, CELLinib GmbH, Frankfurt, Germany). […] In none of the 128 kinases MA191 was able to displace the tracer (inhibitor) used by more than 50%, Table S1, Supplementary Information).
(§2) The CELLinib128 assay was performed by CELLinib GmbH, Frankfurt (Germany) as described previously. In brief: Full-length kinase ORF (Promega, Madison, WI, USA) cloned in frame with a NanoLuc-vector was transfected into HEK293T cells in Opti-MEM without phenol red (Life Technologies, Carlsbad, CA, USA) at a density of 2 × 10^5 cells/mL using FuGENE HD (Promega, E2312) and proteins were allowed to express for 20 h. For CDKs, where indicated below, an excess of an activator without an NLuc-fusion was cotransfected. […] The system was allowed to equilibrate at 37 °C for 2 h and 5% CO2 prior to BRET measurements. For PKCs, a chemical activator PMA was added in a final concentration of 1 µM was added together with test compounds and tracers (Promega, V1171). To measure BRET, NanoBRET^TM NanoGlo substrate + extracellular NanoLuc inhibitor (Promega, N2160) were added as per the manufacturer’s protocol, and filtered luminescence was measured (450 nm BP filter (donor) and 610 nm LP filter (acceptor)). For the 1-shot test compounds, data were normalized to the tracer control and the background control or control compound plateau and an average and SD were calculated. […] For the control compounds competitive displacement data were normalized to the tracer Ctrl and the background Ctrl and then plotted and fitted using GraphPad Prism 10 software using a normalized 3-parameter curve fit with the following equation: Y = 100/(1 + 10^X−LogIC50).

ERN1 = target: T5, ERN1 (Homo sapiens, UniProt O75460); format: binding; conditions: 100% no effect, 0% complete tracer displacement, read-out: Tracer bound
T5 construct: Full-length kinase ORF (Promega, Madison, WI, USA) cloned in frame with a NanoLuc-vector was transfected into HEK293T cells; host or cells: HEK293T
Description: as §1, §2

FGFR4 = target: T6, FGFR4 (Homo sapiens, UniProt P22455); format: binding; conditions: 100% no effect, 0% complete tracer displacement, read-out: Tracer bound
T6 construct: Full-length kinase ORF (Promega, Madison, WI, USA) cloned in frame with a NanoLuc-vector was transfected into HEK293T cells; host or cells: HEK293T
Description: as §1, §2

CDK4-CCND3 = target: T7, CDK4-CCND3 (Homo sapiens, UniProt P11802); format: binding; conditions: 100% no effect, 0% complete tracer displacement, read-out: Tracer bound
T7 construct: Full-length kinase ORF (Promega, Madison, WI, USA) cloned in frame with a NanoLuc-vector was transfected into HEK293T cells; host or cells: HEK293T
Description: as §1, §2

LIMK2 = target: T8, LIMK2 (Homo sapiens, UniProt P53671); format: binding; conditions: 100% no effect, 0% complete tracer displacement, read-out: Tracer bound
T8 construct: Full-length kinase ORF (Promega, Madison, WI, USA) cloned in frame with a NanoLuc-vector was transfected into HEK293T cells; host or cells: HEK293T
Description: as §1, §2

NEK9 = target: T9, NEK9 (Homo sapiens, UniProt Q8TD19); format: binding; conditions: 100% no effect, 0% complete tracer displacement, read-out: Tracer bound
T9 construct: Full-length kinase ORF (Promega, Madison, WI, USA) cloned in frame with a NanoLuc-vector was transfected into HEK293T cells; host or cells: HEK293T
Description: as §1, §2

IRAK3 = target: T10, IRAK3 (Homo sapiens, UniProt Q9Y616); format: binding; conditions: 100% no effect, 0% complete tracer displacement, read-out: Tracer bound
T10 construct: Full-length kinase ORF (Promega, Madison, WI, USA) cloned in frame with a NanoLuc-vector was transfected into HEK293T cells; host or cells: HEK293T
Description: as §1, §2

MAP3K11 = target: T11, MAP3K11 (Homo sapiens, UniProt Q16584); format: binding; conditions: 1 µM; 100% no effect, 0% complete tracer displacement
T11 construct: Full-length kinase ORF (Promega, Madison, WI, USA) cloned in frame with a NanoLuc-vector was transfected into HEK293T cells; host or cells: HEK293T
Description: as §1, §2

NEK1 = target: T12, NEK1 (Homo sapiens, UniProt Q96PY6); format: binding; conditions: 100% no effect, 0% complete tracer displacement, read-out: Tracer bound
T12 construct: Full-length kinase ORF (Promega, Madison, WI, USA) cloned in frame with a NanoLuc-vector was transfected into HEK293T cells; host or cells: HEK293T
Description: as §1, §2

MAPK6 = target: T13, MAPK6 (Homo sapiens, UniProt Q16659); format: binding; conditions: 100% no effect, 0% complete tracer displacement, read-out: Tracer bound
T13 construct: Full-length kinase ORF (Promega, Madison, WI, USA) cloned in frame with a NanoLuc-vector was transfected into HEK293T cells; host or cells: HEK293T
Description: as §1, §2

AURKB = target: T14, AURKB (Homo sapiens, UniProt Q96GD4); format: binding; conditions: 100% no effect, 0% complete tracer displacement, read-out: Tracer bound
T14 construct: Full-length kinase ORF (Promega, Madison, WI, USA) cloned in frame with a NanoLuc-vector was transfected into HEK293T cells; host or cells: HEK293T
Description: as §1, §2

CAMK2A = target: T15, CAMK2A (Homo sapiens, UniProt Q9UQM7); format: binding; conditions: 100% no effect, 0% complete tracer displacement, read-out: Tracer bound
T15 construct: Full-length kinase ORF (Promega, Madison, WI, USA) cloned in frame with a NanoLuc-vector was transfected into HEK293T cells; host or cells: HEK293T
Description: as §1, §2

CDK5-CDK5R2 = target: T16, CDK5-CDK5R2 (Homo sapiens, UniProt Q00535); format: binding; conditions: 100% no effect, 0% complete tracer displacement, read-out: Tracer bound
T16 construct: Full-length kinase ORF (Promega, Madison, WI, USA) cloned in frame with a NanoLuc-vector was transfected into HEK293T cells; host or cells: HEK293T
Description: as §1, §2

DCLK3 = target: T17, DCLK3 (Homo sapiens, UniProt Q9C098); format: binding; conditions: 100% no effect, 0% complete tracer displacement, read-out: Tracer bound
T17 construct: Full-length kinase ORF (Promega, Madison, WI, USA) cloned in frame with a NanoLuc-vector was transfected into HEK293T cells; host or cells: HEK293T
Description: as §1, §2

FGFR2 = target: T18, FGFR2 (Homo sapiens, UniProt P21802); format: binding; conditions: 100% no effect, 0% complete tracer displacement, read-out: Tracer bound
T18 construct: Full-length kinase ORF (Promega, Madison, WI, USA) cloned in frame with a NanoLuc-vector was transfected into HEK293T cells; host or cells: HEK293T
Description: as §1, §2

WEE2 = target: T19, WEE2 (Homo sapiens, UniProt P0C1S8); format: binding; conditions: 100% no effect, 0% complete tracer displacement, read-out: Tracer bound
T19 construct: Full-length kinase ORF (Promega, Madison, WI, USA) cloned in frame with a NanoLuc-vector; host or cells: HEK293T
Description: as §1, §2

SRMS = target: T20, SRMS (Homo sapiens, UniProt Q9H3Y6); format: binding; conditions: 100% no effect, 0% complete tracer displacement, read-out: Tracer bound
T20 construct: Full-length kinase ORF (Promega, Madison, WI, USA) cloned in frame with a NanoLuc-vector was transfected into HEK293T cells; host or cells: HEK293T
Description: as §1, §2

STK3 = target: T21, STK3 (Homo sapiens, UniProt Q13188); format: binding; conditions: 100% no effect, 0% complete tracer displacement, read-out: Tracer bound
T21 construct: Full-length kinase ORF (Promega, Madison, WI, USA) cloned in frame with a NanoLuc-vector was transfected into HEK293T cells; host or cells: HEK293T
Description: as §1, §2

PRKCD-PMA = target: T22, PRKCD-PMA (Homo sapiens, UniProt Q05655); format: binding; conditions: 100% no effect, 0% complete tracer displacement, read-out: Tracer bound
T22 construct: Full-length kinase ORF (Promega, Madison, WI, USA) cloned in frame with a NanoLuc-vector was transfected into HEK293T cells; host or cells: HEK293T
Description: as §1, §2

RPS6KA6 = target: T23, RPS6KA6 (Homo sapiens, UniProt Q9UK32); format: binding; conditions: 1 µM; 100% no effect, 0% complete tracer displacement
T23 construct: Full-length kinase ORF (Promega, Madison, WI, USA) cloned in frame with a NanoLuc-vector was transfected into HEK293T cells; host or cells: HEK293T
Description: as §1, §2

ULK3v1 = target: T24, ULK3v1 (Homo sapiens, UniProt Q6PHR2); format: binding; conditions: 1 µM; 100% no effect, 0% complete tracer displacement
T24 construct: Full-length kinase ORF (Promega, Madison, WI, USA) cloned in frame with a NanoLuc-vector; host or cells: HEK293T
Description: as §1, §2

RPS6KA2 = target: T25, RPS6KA2 (Homo sapiens, UniProt Q15349); format: binding; conditions: 100% no effect, 0% complete tracer displacement, read-out: Tracer bound
T25 construct: Full-length kinase ORF (Promega, Madison, WI, USA) cloned in frame with a NanoLuc-vector was transfected into HEK293T cells; host or cells: HEK293T
Description: as §1, §2

PLK4 = target: T26, PLK4 (Homo sapiens, UniProt O00444); format: binding; conditions: 100% no effect, 0% complete tracer displacement, read-out: Tracer bound
T26 construct: Full-length kinase ORF (Promega, Madison, WI, USA) cloned in frame with a NanoLuc-vector was transfected into HEK293T cells; host or cells: HEK293T
Description: as §1, §2

EPHA5 = target: T27, EPHA5 (Homo sapiens, UniProt P54756); format: binding; conditions: 1 µM; 100% no effect, 0% complete tracer displacement
T27 construct: Full-length kinase ORF (Promega, Madison, WI, USA) cloned in frame with a NanoLuc-vector was transfected into HEK293T cells; host or cells: HEK293T

TEC = TEC (Homo sapiens, UniProt P42680); conditions: read-out: Tracer bound
STK17B = target: T28, STK17B (Homo sapiens, UniProt O94768); format: binding; conditions: 100% no effect, 0% complete tracer displacement, read-out: Tracer bound
T28 construct: Full-length kinase ORF (Promega, Madison, WI, USA) cloned in frame with a NanoLuc-vector was transfected into HEK293T cells; host or cells: HEK293T

T21 sequence (Q13188 whole entry): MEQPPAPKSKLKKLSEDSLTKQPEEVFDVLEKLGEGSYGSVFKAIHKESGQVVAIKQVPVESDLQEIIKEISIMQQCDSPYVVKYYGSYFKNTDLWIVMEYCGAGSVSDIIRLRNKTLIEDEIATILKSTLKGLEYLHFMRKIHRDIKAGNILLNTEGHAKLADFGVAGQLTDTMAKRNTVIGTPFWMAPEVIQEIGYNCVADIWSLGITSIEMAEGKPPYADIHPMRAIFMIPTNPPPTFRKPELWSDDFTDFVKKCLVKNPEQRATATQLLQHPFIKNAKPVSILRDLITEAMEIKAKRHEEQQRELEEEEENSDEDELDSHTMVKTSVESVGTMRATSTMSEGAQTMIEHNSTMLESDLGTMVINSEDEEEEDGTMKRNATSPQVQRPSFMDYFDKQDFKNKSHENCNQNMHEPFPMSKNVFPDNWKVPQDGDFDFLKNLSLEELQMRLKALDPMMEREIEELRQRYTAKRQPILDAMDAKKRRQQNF
T7 sequence (P11802 whole entry): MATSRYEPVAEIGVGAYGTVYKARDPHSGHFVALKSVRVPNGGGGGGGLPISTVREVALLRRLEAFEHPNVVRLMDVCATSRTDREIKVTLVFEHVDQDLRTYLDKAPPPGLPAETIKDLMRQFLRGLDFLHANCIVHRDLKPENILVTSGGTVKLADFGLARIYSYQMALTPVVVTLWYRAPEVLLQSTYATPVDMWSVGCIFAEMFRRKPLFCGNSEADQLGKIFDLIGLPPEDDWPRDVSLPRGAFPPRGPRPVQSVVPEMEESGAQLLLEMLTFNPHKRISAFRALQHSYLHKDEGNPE
T7 sequence (P30281 whole entry partner): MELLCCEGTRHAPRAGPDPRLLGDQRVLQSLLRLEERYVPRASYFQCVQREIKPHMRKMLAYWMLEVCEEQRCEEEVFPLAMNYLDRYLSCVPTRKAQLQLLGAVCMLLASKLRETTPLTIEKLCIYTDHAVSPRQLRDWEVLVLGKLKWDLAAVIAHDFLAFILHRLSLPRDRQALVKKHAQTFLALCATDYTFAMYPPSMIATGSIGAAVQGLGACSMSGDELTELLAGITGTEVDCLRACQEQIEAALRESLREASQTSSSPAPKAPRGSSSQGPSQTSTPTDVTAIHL
T2 sequence (Q15569 whole entry): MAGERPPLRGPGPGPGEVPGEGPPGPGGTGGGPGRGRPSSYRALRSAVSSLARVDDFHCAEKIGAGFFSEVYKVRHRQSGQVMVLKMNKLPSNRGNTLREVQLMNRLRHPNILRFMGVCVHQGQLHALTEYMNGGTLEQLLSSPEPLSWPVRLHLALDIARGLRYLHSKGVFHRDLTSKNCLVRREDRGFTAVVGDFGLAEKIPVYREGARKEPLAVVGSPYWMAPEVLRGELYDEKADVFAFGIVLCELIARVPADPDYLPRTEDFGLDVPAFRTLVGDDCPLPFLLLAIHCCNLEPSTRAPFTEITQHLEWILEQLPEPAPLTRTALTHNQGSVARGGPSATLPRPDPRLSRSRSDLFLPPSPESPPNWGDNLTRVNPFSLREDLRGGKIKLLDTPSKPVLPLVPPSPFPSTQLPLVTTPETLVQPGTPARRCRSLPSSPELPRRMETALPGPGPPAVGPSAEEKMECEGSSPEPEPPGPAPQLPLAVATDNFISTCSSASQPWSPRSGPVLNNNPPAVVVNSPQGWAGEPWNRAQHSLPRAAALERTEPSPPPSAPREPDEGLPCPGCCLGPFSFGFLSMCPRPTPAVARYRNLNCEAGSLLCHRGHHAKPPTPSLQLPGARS
Sequence of GSK3A (P49840 whole entry): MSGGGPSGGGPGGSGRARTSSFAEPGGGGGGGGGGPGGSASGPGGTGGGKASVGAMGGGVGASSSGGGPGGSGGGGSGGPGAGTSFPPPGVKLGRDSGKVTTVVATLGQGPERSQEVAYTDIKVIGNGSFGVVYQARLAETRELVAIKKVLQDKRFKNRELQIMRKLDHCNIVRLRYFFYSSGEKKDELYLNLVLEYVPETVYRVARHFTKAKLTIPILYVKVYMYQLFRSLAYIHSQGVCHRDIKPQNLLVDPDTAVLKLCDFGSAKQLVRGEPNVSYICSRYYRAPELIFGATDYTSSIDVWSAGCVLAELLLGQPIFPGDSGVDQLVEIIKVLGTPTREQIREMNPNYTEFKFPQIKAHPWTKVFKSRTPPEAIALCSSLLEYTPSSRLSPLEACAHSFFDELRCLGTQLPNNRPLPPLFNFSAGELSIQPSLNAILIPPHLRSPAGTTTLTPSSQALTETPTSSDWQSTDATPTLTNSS
T9 sequence (Q8TD19 whole entry): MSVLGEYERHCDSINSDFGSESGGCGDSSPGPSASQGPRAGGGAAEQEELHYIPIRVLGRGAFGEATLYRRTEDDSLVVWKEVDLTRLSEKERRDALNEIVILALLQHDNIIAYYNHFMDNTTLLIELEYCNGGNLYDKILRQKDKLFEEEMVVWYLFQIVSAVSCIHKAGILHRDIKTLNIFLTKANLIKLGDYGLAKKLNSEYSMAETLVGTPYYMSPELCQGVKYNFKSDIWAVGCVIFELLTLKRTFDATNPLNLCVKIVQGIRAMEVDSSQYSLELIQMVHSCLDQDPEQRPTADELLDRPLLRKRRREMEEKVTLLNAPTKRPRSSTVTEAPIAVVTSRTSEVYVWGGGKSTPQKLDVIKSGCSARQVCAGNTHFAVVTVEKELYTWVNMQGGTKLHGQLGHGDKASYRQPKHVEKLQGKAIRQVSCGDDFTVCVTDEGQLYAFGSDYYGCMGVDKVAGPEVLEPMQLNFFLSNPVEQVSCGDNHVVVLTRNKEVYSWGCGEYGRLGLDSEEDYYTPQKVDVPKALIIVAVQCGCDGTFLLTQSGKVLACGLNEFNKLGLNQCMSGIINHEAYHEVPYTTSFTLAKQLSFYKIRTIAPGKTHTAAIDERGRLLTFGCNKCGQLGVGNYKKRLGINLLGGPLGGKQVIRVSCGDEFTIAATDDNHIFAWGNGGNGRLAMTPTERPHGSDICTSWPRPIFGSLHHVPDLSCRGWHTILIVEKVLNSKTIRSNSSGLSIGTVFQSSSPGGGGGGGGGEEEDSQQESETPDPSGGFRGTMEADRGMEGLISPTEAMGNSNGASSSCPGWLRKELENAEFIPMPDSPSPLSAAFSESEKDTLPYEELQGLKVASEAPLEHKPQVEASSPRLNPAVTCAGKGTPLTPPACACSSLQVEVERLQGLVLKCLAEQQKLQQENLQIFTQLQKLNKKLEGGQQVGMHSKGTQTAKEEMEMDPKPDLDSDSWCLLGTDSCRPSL
T11 sequence (Q16584 whole entry): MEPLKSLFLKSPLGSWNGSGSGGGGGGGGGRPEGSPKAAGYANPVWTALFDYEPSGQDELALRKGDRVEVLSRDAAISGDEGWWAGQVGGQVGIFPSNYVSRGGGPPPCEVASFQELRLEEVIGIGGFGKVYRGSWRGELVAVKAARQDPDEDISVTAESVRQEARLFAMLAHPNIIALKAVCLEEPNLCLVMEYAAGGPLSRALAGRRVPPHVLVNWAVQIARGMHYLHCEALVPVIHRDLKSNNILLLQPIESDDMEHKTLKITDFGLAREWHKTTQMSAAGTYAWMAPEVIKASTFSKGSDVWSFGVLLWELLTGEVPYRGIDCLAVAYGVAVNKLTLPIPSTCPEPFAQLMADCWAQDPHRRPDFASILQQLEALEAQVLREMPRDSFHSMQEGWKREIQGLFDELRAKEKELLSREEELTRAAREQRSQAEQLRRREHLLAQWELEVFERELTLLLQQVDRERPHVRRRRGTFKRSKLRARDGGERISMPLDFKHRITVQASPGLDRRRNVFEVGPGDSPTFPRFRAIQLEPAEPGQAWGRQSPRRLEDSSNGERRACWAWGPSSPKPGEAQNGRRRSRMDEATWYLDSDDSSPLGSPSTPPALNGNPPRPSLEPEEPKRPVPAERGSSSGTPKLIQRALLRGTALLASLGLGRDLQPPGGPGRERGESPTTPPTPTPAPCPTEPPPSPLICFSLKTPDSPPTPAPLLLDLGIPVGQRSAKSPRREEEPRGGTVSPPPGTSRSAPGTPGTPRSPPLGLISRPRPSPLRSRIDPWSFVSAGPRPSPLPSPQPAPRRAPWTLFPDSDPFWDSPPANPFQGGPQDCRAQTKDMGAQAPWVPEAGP
T20 sequence (Q9H3Y6 whole entry): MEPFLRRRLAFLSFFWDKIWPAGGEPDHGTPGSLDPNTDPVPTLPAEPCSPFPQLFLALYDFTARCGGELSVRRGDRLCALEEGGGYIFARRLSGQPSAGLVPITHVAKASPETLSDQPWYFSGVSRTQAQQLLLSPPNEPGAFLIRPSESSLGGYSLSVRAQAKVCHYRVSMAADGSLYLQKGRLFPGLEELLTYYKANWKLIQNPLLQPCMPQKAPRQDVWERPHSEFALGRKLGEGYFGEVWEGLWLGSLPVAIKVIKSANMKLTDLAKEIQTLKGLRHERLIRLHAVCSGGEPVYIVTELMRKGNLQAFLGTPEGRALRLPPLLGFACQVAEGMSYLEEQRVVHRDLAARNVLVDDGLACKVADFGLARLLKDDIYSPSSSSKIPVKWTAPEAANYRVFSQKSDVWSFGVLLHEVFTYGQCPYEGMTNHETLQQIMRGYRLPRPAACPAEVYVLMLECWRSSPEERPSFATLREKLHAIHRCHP
T15 sequence (Q9UQM7 whole entry): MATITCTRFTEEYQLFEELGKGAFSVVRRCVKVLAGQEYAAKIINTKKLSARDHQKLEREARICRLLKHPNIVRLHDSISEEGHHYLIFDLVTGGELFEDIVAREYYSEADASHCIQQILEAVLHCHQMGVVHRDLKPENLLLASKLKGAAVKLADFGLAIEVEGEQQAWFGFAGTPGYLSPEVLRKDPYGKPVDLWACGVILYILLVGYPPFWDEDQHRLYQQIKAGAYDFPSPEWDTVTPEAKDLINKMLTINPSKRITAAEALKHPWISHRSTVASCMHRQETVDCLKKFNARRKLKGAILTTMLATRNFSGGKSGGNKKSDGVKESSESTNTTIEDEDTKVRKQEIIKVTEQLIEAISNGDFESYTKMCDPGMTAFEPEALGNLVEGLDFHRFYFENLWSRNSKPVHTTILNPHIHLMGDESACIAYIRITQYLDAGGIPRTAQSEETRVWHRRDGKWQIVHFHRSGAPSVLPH

remaining activity at 1 µM (ABL1): 71.8%
remaining activity at 1 µM (GSK3A): 95.9%
remaining activity at 1 µM (TESK1): 102%
remaining activity at 1 µM (MARK2): 112%
remaining activity at 1 µM (PTK2): 118%
remaining activity at 1 µM (ERN1): 117%
remaining activity at 1 µM (FGFR4): 86.5%
remaining activity at 1 µM (CDK4-CCND3): 29.7%
remaining activity at 1 µM (LIMK2): 88.5%
remaining activity at 1 µM (IRAK3): 120%
Tracer bound (MAP3K11): 109.2%
remaining activity at 1 µM (NEK1): 110%
remaining activity at 1 µM (MAPK6): 113%
remaining activity at 1 µM (AURKB): 76.4%
remaining activity at 1 µM (CAMK2A): 102%
remaining activity at 1 µM (CDK5-CDK5R2): 86.1%
remaining activity at 1 µM (DCLK3): 113%
remaining activity at 1 µM (FGFR2): 40.7%
remaining activity at 1 µM (WEE2): 102%
remaining activity at 1 µM (SRMS): 94.4%
remaining activity at 1 µM (STK3): 99.3%
remaining activity at 1 µM (PRKCD-PMA): 113%
Tracer bound (RPS6KA6): 113.5%
Tracer bound (ULK3v1): 96.1%
remaining activity at 1 µM (RPS6KA2): 116%
remaining activity at 1 µM (PLK4): 107%
Tracer bound (EPHA5): 41.1%
remaining activity at 1 µM (TEC): 107%
remaining activity at 1 µM (STK17B): 102%
Compound: CNC(=O)c1cc(Oc2ccc(NC(=O)Nc3cc(C(C)(C)C)on3)cc2)ccn1 [MA68, reference compound]
remaining activity at 1 µM (NEK9): 109%
